Test results from the NIST ThermoML archive (doi:10.1016/j.jct.2013.10.031).

Experiment: wn = mass fraction of the nth substance listed
Settings: Gas, Burnett expansion method

FCC(F)(F)F [1,1,1,2-tetrafluoroethane] + CCC
Settings	mass density [kg/m3]
304.25 K, 324.7 kPa, w2 = 0.45	8.75837
304.25 K, 423.5 kPa, w2 = 0.45	11.6666
304.25 K, 550.2 kPa, w2 = 0.45	15.5404
304.25 K, 710 kPa, w2 = 0.45	20.7007
306.96 K, 235.2 kPa, w2 = 0.65	5.2834
306.96 K, 309.8 kPa, w2 = 0.65	7.0255
306.96 K, 406.3 kPa, w2 = 0.65	9.3418
306.96 K, 530 kPa, w2 = 0.65	12.4219
306.96 K, 1095.4 kPa, w2 = 0.55	36.0371
306.97 K, 260.5 kPa, w2 = 0.55	6.5188
306.97 K, 673.4 kPa, w2 = 0.55	20.3802
306.97 K, 686.8 kPa, w2 = 0.65	16.5173
306.97 K, 865 kPa, w2 = 0.55	27.1004
306.97 K, 880.8 kPa, w2 = 0.65	21.9632
306.98 K, 343.1 kPa, w2 = 0.55	8.6681
306.98 K, 449.3 kPa, w2 = 0.55	11.5262
306.98 K, 519.6 kPa, w2 = 0.55	15.3262
307 K, 1113.5 kPa, w2 = 0.65	29.2029
307.04 K, 1304.3 kPa, w2 = 0.6	37.3883
307.05 K, 823.4 kPa, w2 = 0.6	21.1446
307.06 K, 286.9 kPa, w2 = 0.6	6.763
307.06 K, 376.9 kPa, w2 = 0.6	8.993
307.06 K, 492.8 kPa, w2 = 0.6	11.9584
307.06 K, 640 kPa, w2 = 0.6	15.901
307.06 K, 1046.1 kPa, w2 = 0.6	28.116
308.12 K, 266.9 kPa, w2 = 0.5	6.72365
308.12 K, 346.4 kPa, w2 = 0.5	8.95632
308.12 K, 447.5 kPa, w2 = 0.5	11.9301
308.12 K, 577.6 kPa, w2 = 0.5	15.8911
308.12 K, 742.5 kPa, w2 = 0.5	21.1679
308.13 K, 944.9 kPa, w2 = 0.5	28.196
308.14 K, 1188.3 kPa, w2 = 0.5	37.5563
308.15 K, 263.5 kPa, w2 = 0.45	6.89941
308.2 K, 1234.2 kPa, w2 = 0.45	38.5343
308.21 K, 980.9 kPa, w2 = 0.45	28.9282
308.22 K, 346.6 kPa, w2 = 0.45	9.18817
308.22 K, 454.6 kPa, w2 = 0.45	12.2393
308.22 K, 592.6 kPa, w2 = 0.45	16.3032
308.22 K, 766.7 kPa, w2 = 0.45	21.7165
308.23 K, 960.1 kPa, w2 = 0.4	29.795
308.24 K, 751.6 kPa, w2 = 0.4	22.3672
308.24 K, 1208.1 kPa, w2 = 0.4	39.6876
308.25 K, 447.1 kPa, w2 = 0.4	12.6056
308.25 K, 581.8 kPa, w2 = 0.4	16.7913
308.26 K, 197.5 kPa, w2 = 0.4	5.33332
308.26 K, 260.1 kPa, w2 = 0.4	7.10429
308.26 K, 341.6 kPa, w2 = 0.4	9.46322
311.01 K, 747.3 kPa, w2 = 0.65	17.8403
311.01 K, 956.7 kPa, w2 = 0.65	23.7227
311.01 K, 1206.7 kPa, w2 = 0.65	31.545
311.02 K, 256.8 kPa, w2 = 0.65	5.8063
311.02 K, 338 kPa, w2 = 0.65	7.5979
311.02 K, 383.5 kPa, w2 = 0.55	9.3582
311.02 K, 443.1 kPa, w2 = 0.65	10.0895
311.02 K, 500.4 kPa, w2 = 0.55	12.444
311.02 K, 577.7 kPa, w2 = 0.65	13.4164
311.02 K, 837.9 kPa, w2 = 0.55	22.003
311.02 K, 1067.2 kPa, w2 = 0.55	29.258
311.02 K, 1334.9 kPa, w2 = 0.55	38.9056
311.03 K, 650.6 kPa, w2 = 0.55	16.547
311.06 K, 1343.8 kPa, w2 = 0.6	37.8297
311.07 K, 294.6 kPa, w2 = 0.6	6.8432
311.07 K, 386.9 kPa, w2 = 0.6	9.1
311.07 K, 505.8 kPa, w2 = 0.6	12.1
311.07 K, 657.2 kPa, w2 = 0.6	16.0896
311.07 K, 846.4 kPa, w2 = 0.6	21.3948
311.07 K, 1076.1 kPa, w2 = 0.6	28.4489
312.09 K, 1147.3 kPa, w2 = 0.4	36.0778
312.09 K, 1427.9 kPa, w2 = 0.4	48.057
312.1 K, 240.2 kPa, w2 = 0.4	6.45834
312.1 K, 415.1 kPa, w2 = 0.4	11.4592
312.1 K, 542.2 kPa, w2 = 0.4	15.2643
312.1 K, 703.7 kPa, w2 = 0.4	20.3326
312.1 K, 904.5 kPa, w2 = 0.4	27.0838
312.11 K, 316.2 kPa, w2 = 0.4	8.60266
312.14 K, 1384.5 kPa, w2 = 0.45	44.9611
312.16 K, 1108.9 kPa, w2 = 0.45	33.7517
312.17 K, 679.1 kPa, w2 = 0.45	19.022
312.17 K, 873 kPa, w2 = 0.45	25.3381
312.18 K, 403.4 kPa, w2 = 0.45	10.7201
312.18 K, 524.7 kPa, w2 = 0.45	14.2797
312.19 K, 309.2 kPa, w2 = 0.45	8.04778
312.23 K, 1062.8 kPa, w2 = 0.5	30.8635
312.24 K, 293.9 kPa, w2 = 0.5	7.35936
312.24 K, 386.2 kPa, w2 = 0.5	9.80302
312.24 K, 650.6 kPa, w2 = 0.5	17.3937
312.24 K, 835.8 kPa, w2 = 0.5	23.1694
312.24 K, 1330.8 kPa, w2 = 0.5	41.1106
312.25 K, 502.5 kPa, w2 = 0.5	13.0579
315.01 K, 615.4 kPa, w2 = 0.65	14.1721
315.01 K, 795.5 kPa, w2 = 0.65	18.8451
315.01 K, 1017.2 kPa, w2 = 0.65	25.0585
315.01 K, 1280.7 kPa, w2 = 0.65	33.3212
315.02 K, 274.4 kPa, w2 = 0.65	6.0676
315.02 K, 360.8 kPa, w2 = 0.65	8.015
315.02 K, 472.6 kPa, w2 = 0.65	10.6578
315.06 K, 855 kPa, w2 = 0.55	22.0047
315.06 K, 1090.2 kPa, w2 = 0.55	29.2605
315.06 K, 1366.4 kPa, w2 = 0.55	38.9077
315.07 K, 509.9 kPa, w2 = 0.55	12.4444
315.07 K, 663.2 kPa, w2 = 0.55	16.5479
315.08 K, 389.6 kPa, w2 = 0.55	9.3584
315.09 K, 296.5 kPa, w2 = 0.55	7.0377
315.09 K, 1068.9 kPa, w2 = 0.6	27.4868
315.1 K, 289.6 kPa, w2 = 0.6	6.6116
315.1 K, 498.6 kPa, w2 = 0.6	11.6903
315.1 K, 648.9 kPa, w2 = 0.6	15.5452
315.1 K, 837.4 kPa, w2 = 0.6	20.6708
315.1 K, 1341.8 kPa, w2 = 0.6	36.5492
315.11 K, 380.8 kPa, w2 = 0.6	8.7915
315.98 K, 1580.4 kPa, w2 = 0.5	50.2225
316.02 K, 947.3 kPa, w2 = 0.4	28.0242
316.02 K, 1201.7 kPa, w2 = 0.4	37.3297
316.03 K, 251.6 kPa, w2 = 0.4	6.68246
316.03 K, 331.4 kPa, w2 = 0.4	8.9013
316.03 K, 434.8 kPa, w2 = 0.4	11.857
316.03 K, 568 kPa, w2 = 0.4	15.7941
316.03 K, 737 kPa, w2 = 0.4	21.0384
316.03 K, 1496.5 kPa, w2 = 0.4	49.7241
316.07 K, 1279.9 kPa, w2 = 0.5	37.6931
316.09 K, 1628 kPa, w2 = 0.45	55.7253
316.11 K, 1015.3 kPa, w2 = 0.5	28.294
316.11 K, 1322.4 kPa, w2 = 0.45	41.8324
316.12 K, 496.6 kPa, w2 = 0.45	13.2868
316.12 K, 641.4 kPa, w2 = 0.45	17.6986
316.12 K, 825.1 kPa, w2 = 0.45	23.5754
316.12 K, 1051.5 kPa, w2 = 0.45	31.4039
316.13 K, 382.7 kPa, w2 = 0.45	9.97465
316.13 K, 614 kPa, w2 = 0.5	15.945
316.13 K, 793.6 kPa, w2 = 0.5	21.2396
316.14 K, 359.6 kPa, w2 = 0.5	8.98623
316.14 K, 471.1 kPa, w2 = 0.5	11.9702
319.94 K, 1816.9 kPa, w2 = 0.4	64.6378
319.97 K, 1488.2 kPa, w2 = 0.4	48.5219
319.98 K, 935.7 kPa, w2 = 0.4	27.3455
319.98 K, 1189.8 kPa, w2 = 0.4	36.4256
319.99 K, 326.1 kPa, w2 = 0.4	8.68561
319.99 K, 428.1 kPa, w2 = 0.4	11.5696
319.99 K, 559.5 kPa, w2 = 0.4	15.4113
319.99 K, 726.9 kPa, w2 = 0.4	20.5286
320 K, 1619.8 kPa, w2 = 0.5	49.4434
320.03 K, 1304.5 kPa, w2 = 0.5	37.1152
320.05 K, 1030.2 kPa, w2 = 0.5	27.8617
320.07 K, 802.1 kPa, w2 = 0.5	20.9155
320.08 K, 360.7 kPa, w2 = 0.5	8.84905
320.08 K, 473.5 kPa, w2 = 0.5	11.7874
320.08 K, 618.5 kPa, w2 = 0.5	15.7015
320.08 K, 1320 kPa, w2 = 0.45	39.4284
320.08 K, 1636.4 kPa, w2 = 0.45	52.5203
320.09 K, 814.3 kPa, w2 = 0.45	22.2206
320.09 K, 1044.1 kPa, w2 = 0.45	29.5994
320.1 K, 367.3 kPa, w2 = 0.45	9.40149
320.1 K, 481.7 kPa, w2 = 0.45	12.5232
320.1 K, 628.6 kPa, w2 = 0.45	16.6813
